According to ChEMBL document CHEMBL1149010, “A comparative study on anti-inflammatory activities of the enantiomers, shikonin and alkannin” (1986):

How the values were obtained:
Assay type in all cases: functional
Rattus norvegicus [1] = assay: Decrease in histamine-induced capillary permeability in Wistar rat assessed as inhibition of pontamine sky blue 6BX dye leakage at 50 ug treated topically relative to control
Rattus norvegicus [2] = assay: Decrease in histamine-induced capillary permeability in Wistar rat assessed as inhibition of pontamine sky blue 6BX dye leakage at 100 ug treated topically relative to control
Rattus norvegicus [3] = assay: Antiinflammatory activity against thermal injury-induced edema in Wistar rat skin assessed as inhibition of edema at 50 ug treated topically relative to control; design: scale not given: the % may be the effect or the level left
Rattus norvegicus [4] = assay: Antiinflammatory activity against thermal injury-induced edema in Wistar rat skin assessed as inhibition of edema at 100 ug treated topically relative to control; design: scale not given: the % may be the effect or the level left

Compound	inhibition (INH) (Rattus norvegicus [1]) [%]	inhibition (INH) (Rattus norvegicus [2]) [%]	Activity (Rattus norvegicus [3]) [%]	Activity (Rattus norvegicus [4]) [%]
CC(C)=CC[C@@H](O)C1=CC(=O)c2c(O)ccc(O)c2C1=O (stereo in doubt; form 1) [SHIKONIN]	13.7	22.3	22	20.6
CC(C)=CC[C@@H](O)C1=CC(=O)c2c(O)ccc(O)c2C1=O (stereo in doubt; form 2) [SHIKONIN]			26.7	23.2
CC(C)=CC[C@H](O)C1=CC(=O)c2c(O)ccc(O)c2C1=O [ALKANNIN]	7.9	21.3	21.3	21.7
CCCCC1C(=O)N(c2ccccc2)N(c2ccccc2)C1=O [PHENYLBUTAZONE]			38.9	
